Reference: patent publication US20210260022A1, “SYNERGY FOR INCREASING ENERGY EXPENDITURE AND INSULIN SENSITIVITY” (The Board of Supervisors of Louisiana State University and …, priority 2018, published 2021)

How the values were obtained:
PPARγ = target: T1, PPARγ (Homo sapiens, UniProt P37231); settings: reporter gene assays; cited from earlier work
T1 sequence (P37231 1-505): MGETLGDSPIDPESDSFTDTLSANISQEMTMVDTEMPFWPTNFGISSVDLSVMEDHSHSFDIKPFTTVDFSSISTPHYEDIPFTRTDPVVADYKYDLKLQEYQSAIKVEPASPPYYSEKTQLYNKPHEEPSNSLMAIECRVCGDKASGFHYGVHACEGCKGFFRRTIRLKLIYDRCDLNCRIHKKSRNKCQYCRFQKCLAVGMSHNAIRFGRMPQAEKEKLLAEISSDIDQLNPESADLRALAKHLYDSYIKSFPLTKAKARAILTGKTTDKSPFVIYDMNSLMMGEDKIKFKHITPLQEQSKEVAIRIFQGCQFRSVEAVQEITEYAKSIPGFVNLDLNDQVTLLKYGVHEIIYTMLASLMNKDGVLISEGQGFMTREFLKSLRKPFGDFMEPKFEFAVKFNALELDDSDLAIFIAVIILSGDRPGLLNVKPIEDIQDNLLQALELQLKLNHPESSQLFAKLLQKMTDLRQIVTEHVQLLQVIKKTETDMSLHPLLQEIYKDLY

human adipocytes [1] = experiment: Oxygen consumption rate in human adipocytes, Seahorse XF24; type: cell-based; settings: treated for 7d
Method: Referring to FIG. 3, oxygen consumption rate in human adipocytes after Naringenin treatment. Cells were treated for 7d and OCR was measured using a Seahorse XF24. Rosiglitizone and GW7647 (activators of PPARγ and PPARα) were included as positive controls.

human adipocytes [2] = experiment: qRT-PCR in human adipocytes (hADSC) treated two days with naringenin and inhibitors; type: cell-based; settings: for CPT1β mRNA expression compared to control / UCP1 mRNA expression compared to control: naringenin 30 μM (whole orange extract), two days
Method: Human white adipocytes were treated for 2d with naringenin in the presence of inhibitors of metabolic pathways to determine the mechanism of action for stimulating fat oxidation and thermogenic energy expenditure.
Naringenin increased UCP1 and CPT1β mRNA induction compared to control (p<0.001). PPARα and PPARγ inhibition reduced UCP1 and CPT1β mRNA expression (p<0.001). Each experiment was conducted with three biological replicates and four technical replicates.
The whole orange extract was dissolved in DMSO at 15 mM (based on 28% naringenin content) and added to cells at a dilution of 1:500 to achieve a final concentration of 30 μM. The inhibitors added to the naringenin-treated cells included: peroxisome proliferator-activated receptor alpha (PPARα) antagonist GW6471 and peroxisome proliferator-activated receptor gamma (PPARγ) antagonist GW9662 (Cayman Chemical, Ann Arbor, Mich.) at 10 μM concentration, protein kinase A (PKA) inhibitor H89 (Millipore Sigma, Burlington, Mass.) at 20 μM concentration, and protein kinase G (PKG) inhibitor […] (Biolog Life Science Institute, AXXORA, LLC, Farmingdale, N.Y.) at 50 μM concentration. GW6471 and GW9662 were dissolved in DMSO at 1000×, H89 was dissolved in PBS at 500×, and Rp-8-pCPT-cGMPS was dissolved in PBS at 100× prior to dilution in cell culture medium. Following a two-day treatment, the cells were harvested with Trizol reagent. RNeasy Mini Kit (Qiagen, Germantown, Md.) was used to isolate total RNA following manufacturer's protocol. The expression of UCP1, CPT1β, and GLUT4 was quantified with one-step reverse transcriptase PCR using the reverse PCR primer to prime cDNA synthesis as previously described.^6

[3] = 150 mg three times a day for eight weeks (Murugesan et al., 2020); cited from earlier work

O=C1C[C@@H](c2ccc(O)cc2)Oc2cc(O)cc(O)c21 [naringenin]
activation of PPARγ (PPARγ): Direct activation
oxygen consumption rate: basal and maximal energy expenditure (human adipocytes [1]): significantly increases basal and maximal energy expenditure
oxygen consumption rate: basal and maximal energy expenditure (human adipocytes [1]; listed as Naringenin): increase in oxygen consumption
CPT1β mRNA expression compared to control (human adipocytes [2]): more than three-fold
UCP1 mRNA expression compared to control (human adipocytes [2]): more than three-fold
CPT1β mRNA expression compared to control (human adipocytes [2]; listed as Naringenin): increased
UCP1 mRNA expression compared to control (human adipocytes [2]; listed as Naringenin): increased
GLUT4 mRNA expression (human adipocytes [2]; naringenin, two-day period): no increase
body weight reduction [3]: 2.5%
